Test results taken from BindingDB's records for doi:10.7270/Q2N014XN (Srmlsc, 2007).

Each molecule was assayed against T1, Diphosphomevalonate decarboxylase (Streptococcus pneumoniae serotype 2 (strain D39 / NCTC 7466), UniProt A0A0H2ZN59) (assay: diphosphomevalonate decarboxylase inhibition dose curves – biochemical, PK/LDH-coupled NADH fluorescence, hexokinase coupling counter-screen, dose response (AID 550)). Settings: not given.
T1 sequence (A0A0H2ZN59 whole entry): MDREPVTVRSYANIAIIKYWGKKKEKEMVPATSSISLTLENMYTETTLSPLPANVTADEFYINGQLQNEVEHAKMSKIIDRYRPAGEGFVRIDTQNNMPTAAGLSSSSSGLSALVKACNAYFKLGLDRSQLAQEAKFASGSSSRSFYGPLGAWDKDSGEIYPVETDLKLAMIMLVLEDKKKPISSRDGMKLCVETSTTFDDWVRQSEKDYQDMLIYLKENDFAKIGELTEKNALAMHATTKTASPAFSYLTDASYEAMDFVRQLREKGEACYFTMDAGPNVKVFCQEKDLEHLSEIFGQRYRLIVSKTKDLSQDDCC

First: COCCNC(=O)c1cnn2c(C(F)(F)F)cc(-c3ccc4c(c3)OCO4)nc12 [5-(1,3-benzodioxol-5-yl)-N-(2-methoxyethyl)-7-(trifluoromethyl)-3-pyrazolo[1,5-a]pyrimidinecarboxamide]
Second: COc1ccc(-c2cc(C(F)(F)F)n3nc(C(=O)N4CCC5(CC4)OCCO5)cc3n2)cc1OC [8-{[5-(3,4-dimethoxyphenyl)-7-(trifluoromethyl)pyrazolo[1,5-a]pyrimidin-2-yl]carbonyl}-1,4-dioxa-8-azaspiro[4.5]decane]
The IC50 of the first is higher: over 10000 µM for the first, 75.3 µM for the second.

`Cc1c(C(=O)NC2CC2)oc2ccc(S(=O)(=O)N3CCCCCC3)cc12` [5-(1-azepanylsulfonyl)-N-cyclopropyl-3-methyl-2-benzofurancarboxamide] and `Cc1ccc(S(=O)(=O)N2CCOCC(=O)NCCOCCNC(=O)COCC2)cc1` [16-(4-methylphenyl)sulfonyl-1,7,13-trioxa-4,10,16-triazacyclooctadecane-3,11-dione] cannot be ordered by IC50: over 10000 µM for the first, over 10000 µM for the second.

Going from `Cc1cccc(Nc2nnc(S)s2)c1C` [5-(2,3-dimethylanilino)-3H-1,3,4-thiadiazole-2-thione] to `COc1cccc(C=Nn2c(C)nnc2C)c1OC` [(2,3-dimethoxybenzylidene)-(3,5-dimethyl-1,2,4-triazol-4-yl)amine], the IC50 rises from 188 µM to over 10000 µM. The first is the more potent here.

First: COc1ccc(-c2nnc(Nc3nc4c(OC)cccc4s3)o2)c(OC)c1 [5-(2,4-dimethoxyphenyl)-N-(4-methoxy-1,3-benzothiazol-2-yl)-1,3,4-oxadiazol-2-amine]
Second: COc1ccc(-c2nn3c(-c4ccco4)nnc3s2)cc1OC [6-(3,4-dimethoxyphenyl)-3-(2-furanyl)-[1,2,4]triazolo[3,4-b][1,3,4]thiadiazole]
The IC50 of the first is 35-fold lower: 6.62 µM for the first, 235 µM for the second.

Going from `Cc1ccccc1Cn1cc(NC(=O)c2cc3nc(-c4ccco4)cc(C(F)(F)F)n3n2)cn1` [5-(2-furanyl)-N-[1-[(2-methylphenyl)methyl]-4-pyrazolyl]-7-(trifluoromethyl)-2-pyrazolo[1,5-a]pyrimidinecarboxamide] to `Cc1cc(-c2ccccc2)nc2cc(C(N)=O)nn12` [7-methyl-5-phenyl-2-pyrazolo[1,5-a]pyrimidinecarboxamide], the IC50 rises from 31.4 µM to over 10000 µM.

Compared with `COc1ccc(C2CC(c3cccc(C)c3)n3nc(N)nc3N2)cc1` (stereo not given) [5-(4-methoxyphenyl)-7-(3-methylphenyl)-1,5,6,7-tetrahydro-[1,2,4]triazolo[1,5-a]pyrimidin-2-amine], `COc1ccc(NC(=O)c2nnn(Cc3ccc(SC)cc3)c2N)c(OC)c1` [5-amino-N-(2,4-dimethoxyphenyl)-1-[(4-methylsulfanylphenyl)methyl]triazole-4-carboxamide] is lower in IC50: over 10000 µM for the first, 28.5 µM for the second. The second is the more potent here.

Compared with `c1ccc(-c2nc3nonc3c3nc4ccccc4n23)cc1` [5-Phenyl-2-oxa-1,3,4,5a,10-pentaaza-cyclopenta[a]fluorene], `Cn1ncc2c(Nc3ccc(-c4ccccc4)cc3)ncnc21` [(1-methylpyrazolo[3,4-d]pyrimidin-4-yl)-(4-phenylphenyl)amine] is lower in IC50: over 10000 µM for the first, 53.7 µM for the second. The second is the more potent here.

`COC(=O)c1cc(NCc2c(F)cccc2Cl)ccc1N1CCOCC1` [5-[(2-chloro-6-fluoro-benzyl)amino]-2-morpholino-benzoic acid methyl ester] and `COc1cc(CNc2ccc(N3CCOCC3)c(C(=O)O)c2)ccc1OCC(N)=O` [5-[[4-(2-amino-2-keto-ethoxy)-3-methoxy-benzyl]amino]-2-morpholino-benzoic acid] are within 1.5-fold of each other in IC50: 80.4 µM for the first, 65.5 µM for the second.

`COC(=O)c1ccc(COc2ccc3c4c(c(=O)oc3c2)CCC4)o1` [5-[(4-keto-2,3-dihydro-1H-cyclopenta[c]chromen-7-yl)oxymethyl]furan-2-carboxylic acid methyl ester] and `CCn1c2c(c3cc(C(=O)O)ccc31)CCCC2=O` [9-ethyl-1-oxo-2,3,4,9-tetrahydro-1H-carbazole-6-carboxylic acid] are within 1.5-fold of each other in IC50: 97.1 µM for the first, 78.5 µM for the second.

Going from `CCOC(=O)c1cncc(NC(=O)c2ccccc2)c1` [5-benzamido-3-pyridinecarboxylic acid ethyl ester] to `O=C(Nc1ccc2nn(-c3ccccc3)nc2c1)c1ccc(Br)o1` [5-bromanyl-N-(2-phenylbenzotriazol-5-yl)furan-2-carboxamide], the IC50 falls from over 10000 µM to 32.6 µM.

First: CSc1ncc(Cl)c(C(=O)Nc2nnc(SC)s2)n1 [5-chloranyl-2-methylsulfanyl-N-(5-methylsulfanyl-1,3,4-thiadiazol-2-yl)pyrimidine-4-carboxamide]
Second: CC1(C)Cc2nc3sc4c(=O)[nH]cnc4c3cc2CS1 [8,8-dimethyl-7,10-dihydro-8H-thiopyrano[3'',4'':5',6']pyrido[3',2':4,5]thieno[3,2-d]pyrimidin-4(3H)-one]
The IC50 of the first is higher: over 10000 µM for the first, 108 µM for the second.

Going from `COC(=O)c1[nH]c2ccc(Cl)cc2c1NC(=O)CCN1CCOCC1` [5-chloro-3-[[3-(4-morpholinyl)-1-oxopropyl]amino]-1H-indole-2-carboxylic acid methyl ester] to `CCOC(=O)c1[nH]c2ccc(OC)cc2c1NC(=O)CN1CCN(c2ccccn2)CC1` [5-methoxy-3-[[1-oxo-2-[4-(2-pyridinyl)-1-piperazinyl]ethyl]amino]-1H-indole-2-carboxylic acid ethyl ester], the IC50 rises from 149 µM to over 10000 µM.

Going from `CCc1ccc(S(=O)(=O)NCc2cn3ccsc3n2)s1` [5-ethyl-N-(6-imidazo[2,1-b]thiazolylmethyl)-2-thiophenesulfonamide] to `COc1ccc2nc3oc(C(=O)NCc4cccs4)cc3cc2c1` [6-methoxy-N-(2-thenyl)furo[2,3-b]quinoline-2-carboxamide], the IC50 falls from over 10000 µM to 13.9 µM. The second is the more potent here.

Going from `Cc1nc(NCCN)c(C#N)c2c1COC(C)(C)C2` [6-(2-aminoethylamino)-3,3,8-trimethyl-1,4-dihydropyrano[3,4-c]pyridine-5-carbonitrile] to `COC(=O)C1=C(C)OC(=N)C(C#N)C1c1cc(OC)c(OCC(N)=O)cc1Cl` (stereo not given) [6-Amino-4-(4-carbamoylmethoxy-2-chloro-5-methoxy-phenyl)-5-cyano-2-methyl-4H-pyran-3-carboxylic acid methyl ester], the IC50 rises from 73.8 µM to over 10000 µM.

`N#Cc1c(C(F)(F)F)cc(-c2ccco2)nc1SCc1ccncc1` [6-(2-furanyl)-2-(pyridin-4-ylmethylthio)-4-(trifluoromethyl)-3-pyridinecarbonitrile] and `COc1cccc2cc3c(=O)n(-c4ccccc4)nc-3oc12` [8-methoxy-2-phenyl-3-[1]benzopyrano[2,3-c]pyrazolone] cannot be ordered by IC50: over 10000 µM for the first, over 10000 µM for the second.

Going from `COc1ccc(-c2nn3c(-c4ccccn4)nnc3s2)cc1OC` [6-(3,4-dimethoxyphenyl)-3-(2-pyridinyl)-[1,2,4]triazolo[3,4-b][1,3,4]thiadiazole] to `CCn1c2ccccc2c2nc3cc(OC)c(OC)cc3nc21` [6-Ethyl-2,3-dimethoxy-6H-indolo[2,3-b]quinoxaline], the IC50 falls from 89.8 µM to 30.6 µM (2.9-fold).

First: CC1(C)CC(=O)c2cc(OCC(=O)N3CCN(c4ccccc4F)CC3)ccc2O1 [6-[2-[4-(2-fluorophenyl)-1-piperazinyl]-2-oxoethoxy]-2,2-dimethyl-3,4-dihydro-2H-1-benzopyran-4-one]
Second: Cc1cc(N2CCN(C3CCCC3)CC2)n2nc(C)c(-c3ccccc3)c2n1 [7-(4-cyclopentyl-1-piperazinyl)-2,5-dimethyl-3-phenylpyrazolo[1,5-a]pyrimidine]
The IC50 of the first is lower: 37 µM for the first, over 10000 µM for the second.

`CCOC(=O)c1c(C)n(OCc2ccccc2)c2ccc3c(n[o+]n3[O-])c12` [6-benzoxy-7-methyl-3-oxido-pyrrolo[2,3-g][2,1,3]benzoxadiazol-3-ium-8-carboxylic acid ethyl ester] and `C/C=C/Cn1c(N(C)Cc2ccccc2)nc2c1c(=O)[nH]c(=O)n2C` [8-[benzyl(methyl)amino]-7-[(E)-but-2-enyl]-3-methylpurine-2,6-dione] cannot be ordered by IC50: over 10000 µM for the first, over 10000 µM for the second.

First: COCCn1nnnc1CN(Cc1cccnc1)Cc1cc2cc(OC)ccc2[nH]c1=O [6-methoxy-3-[[[1-(2-methoxyethyl)-5-tetrazolyl]methyl-(3-pyridinylmethyl)amino]methyl]-1H-quinolin-2-one]
Second: O=c1[nH]c2cc3c(cc2cc1CN(CCCO)Cc1nnnn1Cc1ccc(F)cc1)OCO3 [7-[[[1-[(4-fluorophenyl)methyl]-1,2,3,4-tetrazol-5-yl]methyl-(3-oxidanylpropyl)amino]methyl]-5H-[1,3]dioxolo[4,5-g]quinolin-6-one]
The IC50 of the first is higher: over 10000 µM for the first, 54.1 µM for the second.

First: COC(=O)c1c(C(=O)OC)c2ccncn2c1Cl [7-Chloro-pyrrolo[1,2-c]pyrimidine-5,6-dicarboxylic acid dimethyl ester]
Second: Cc1cccc(OCC(O)Cn2c(-n3nc(C)cc3C)nc3c2c(=O)[nH]c(=O)n3C)c1 (stereo not given) [8-(3,5-dimethylpyrazol-1-yl)-7-[2-hydroxy-3-(3-methylphenoxy)propyl]-3-methylpurine-2,6-dione]
The IC50 of the first is lower: 26.8 µM for the first, over 10000 µM for the second.

Going from `CC(C)(C)n1nnnc1C(c1cc2cc3c(cc2[nH]c1=O)OCO3)N1CCN(c2ccccc2)CC1` (stereo not given) [7-[(1-tert-butyl-1,2,3,4-tetrazol-5-yl)-(4-phenylpiperazin-1-yl)methyl]-5H-[1,3]dioxolo[4,5-g]quinolin-6-one] to `O=C1CC(c2cccnc2)c2cc3c(cc2N1)OCO3` (stereo not given) [8-(3-pyridinyl)-7,8-dihydro-5H-[1,3]dioxolo[4,5-g]quinolin-6-one], the IC50 rises from 57 µM to over 10000 µM.

Compared with `O=NC1=C(Cc2ccco2)CCC1` [(2E)-2-(2-furanylmethylidene)-1-cyclopentanone oxime], `CN(C)[C@@H]1C(=O)C(C(N)=O)C(=O)[C@@]2(O)C(=O)C3C(=O)c4c(O)cccc4[C@@](C)(O)[C@H]3[C@H](O)[C@@H]12` (stereo partly drawn) [(2E,4S,4aR,5S,5aR,6S,12aS)-2-[azanyl(oxidanyl)methylidene]-4-(dimethylamino)-6-methyl-5,6,10,11,12a-pentakis(oxidanyl)-4,4a,5,5a-tetrahydrotetracene-1,3,12-trione] is lower in IC50: over 10000 µM for the first, 36.8 µM for the second.

Same assay, conditions: inactive by the depositor's call

In the case of `O=C(O)c1cccn2c(=O)c3ccccc3nc12` [11-Oxo-11H-pyrido[2,1-b]quinazoline-6-carboxylic acid], the IC50 is reported as 66.7 µM.
